In patent publication US6849578B1, “Selective herbicides based on 2,6-disubstituted pyridine derivatives” (Bayer Aktiengesellschaft, priority 1999, dated 2005):

Key:
Assay type in all cases: in vivo
Avenua = test: Post-emergence greenhouse test, % damage; settings: after about 3 weeks
Source text: (§1) The expected activity for a given combination of two herbicides can be calculated as follows (cf. COLBY, S. R.: “Calculating synergistic and antagonistic responses of herbicide combinations”, Weeds 15, pages 20-22, 1967): • If X=% damage by herbicide A (active compound of the formula (I) at an application rate of p kg/ha • and Y=% damage by herbicide B (active compound of the formula II) at an application rate of q kg/ha • and E=the expected damage of the herbicides A and B at application rates of p and q kg/ha, • then E=X+Y−(X*Y/100).
(§2) Customary formulations of the active compounds in question were used. Propoxycarbazone-sodium was used as 70 WG, flufenacet as 60 WG and picolinafen as 75 WG formulation. From the active compounds, an aqueous spray liquor containing 0.1% of the additive Renex-36 was prepared.
(§3) Test plants are grown in a greenhouse under controlled conditions (temperature and light conditions). When the plants have reached a height of 5 to 15 cm, they are sprayed with the test solution. The concentration of the spray liquor is chosen such that the particular amounts of active compound desired are applied in 500 l of water/ha.
(§4) After the spray treatment, the plant containers are stored in a greenhouse at constant light and temperature conditions.
(§5) After about 3 weeks, the degree of damage to the crop plants is rated in % damage in comparison to the development of the untreated control.
(§6) The figures denote: • 0%=no damage (like untreated control) • 100%=total destruction/damage

Ipomoea = test: Post-emergence greenhouse test, % damage; settings: Table A-5, after about 3 weeks
Source text: as §1, §2, §3, §4, §5, §6

Digitaria = test: Post-emergence greenhouse test, % damage; settings: Table A-2, after about 3 weeks
Source text: as §1, §2, §3, §4, §5, §6

Cassia = test: Post-emergence greenhouse test, % damage; settings: Table A-4, after about 3 weeks
Source text: as §1, §2, §3, §4, §5, §6

Echinochloa = test: Post-emergence greenhouse test, % damage; settings: Table A-3, after about 3 weeks
Source text: as §1, §2, §3, §4, §5, §6

Viola = test: Post-emergence greenhouse test, % damage; settings: Table A-6, after about 3 weeks
Source text: as §1, §2, §3, §4, §5, §6

Lactuca = test: Outdoor trials in cereal, post-emergence spring, herbicidal activity; settings: about 8-10 weeks after application
Source text: as §1
(§7) To examine a possible synergism, the compounds picolinafen and propoxycarbazone-sodium were tested under outdoor conditions in cereal against economically important weed grasses. The small-plot experiments were conducted on areas used for agricultural cultivation.
(§8) The active compounds were applied in spring by the post-emergence method and over the entire area, using spray application with a medium droplet size. To prepare an advantageous preparation of active compound, the active compounds were formulated as 70 WG (70% w/w water-dispersible powder) or 75 WG (75% w/w water-dispersible powder) and suspended in water. The spray liquor was then applied in a water application rate customarily used in practice.
(§9) About 8-10 weeks after the application of the spray liquor, the herbicidal activity was scored visually. The figures denote: • 0%=no herbicidal effect, • 100%=total destruction of the crop or the weeds.

Stellaria = test: as above; settings: about 8-10 weeks after application
Source text: as §1, §7, §8, §9

Galium = test: as above; settings: about 8-10 weeks after application
Source text: as §1, §7, §8, §9

Legousia = test: as above; settings: about 8-10 weeks after application
Source text: as §1, §7, §8, §9

Matricaria ch. = test: as above; settings: about 8-10 weeks after application
Source text: as §1, §7, §8, §9

Matricaria in. = test: as above; settings: about 8-10 weeks after application
Source text: as §1, §7, §8, §9

CC(C)N(C(=O)COc1nnc(C(F)(F)F)s1)c1ccc(F)cc1 [flufenacet, N-isopropyl-N-(4-fluorophenyl)-(5-trifluoromethyl-1,3,4-thiadiazol-2-yl-oxy)-acetamide]
Avenua observed (Avenua; 30 g of ai/ha, Table A-1): 10%
Avenua observed (Avenua; 60 g of ai/ha, Table A-1): 10%
Ipomoea observed (Ipomoea; 60 g of ai/ha): 30%
Ipomoea observed (Ipomoea; 125 g of ai/ha): 30%
Digitaria observed (Digitaria; 60 g of ai/ha): 0%
Digitaria observed (Digitaria; 125 g of ai/ha): 10%
Cassia observed (Cassia; 125 g of ai/ha): 0%
Echinochloa observed (Echinochloa; 60 g of ai/ha): 60%
Viola observed (Viola; 60 g of ai/ha): 0%

O=C(Nc1ccc(F)cc1)c1cccc(Oc2cccc(C(F)(F)F)c2)n1 [picolinafen, N-(4-fluorophenyl)-6-[3-(trifluoromethyl)phenoxy]-2-pyridinecarboxamide]
Lactuca observed (Lactuca; 75 g of ai/ha): 0%
Stellaria observed (Stellaria; 75 g of ai/ha): 20%
Galium observed (Galium; 75 g of ai/ha): 30%
Legousia observed (Legousia; 75 g of ai/ha): 0%
Matricaria ch. observed 1st location (Matricaria ch.; 75 g of ai/ha): 0%
Matricaria ch. observed 2nd location (Matricaria ch.; 75 g of ai/ha): 0%
Matricaria in. observed (Matricaria in.; 75 g of ai/ha): 45%
Avenua observed (Avenua; 8 g of ai/ha, Table A-1): 0%
Avenua observed (Avenua; 15 g of ai/ha, Table A-7): 10%
Avenua observed (Avenua; 15 g of ai/ha, Table A-8): 0%
Avenua observed (Avenua; 15 g of ai/ha, Table A-9): 70%
Avenua observed (Avenua; 30 g of ai/ha, Table A-1): 20%
Avenua observed (Avenua; 30 g of ai/ha, Table A-7): 20%
Avenua observed (Avenua; 30 g of ai/ha, Table A-8): 20%
Avenua observed (Avenua; 30 g of ai/ha, Table A-9): 70%
Ipomoea observed (Ipomoea; 8 g of ai/ha): 70%
Ipomoea observed (Ipomoea; 15 g of ai/ha): 70%
Ipomoea observed (Ipomoea; 30 g of ai/ha): 70%
Digitaria observed (Digitaria; 30 g of ai/ha): 50%
Cassia observed (Cassia; 30 g of ai/ha): 40%
Echinochloa observed (Echinochloa; 8 g of ai/ha): 10%
Viola observed (Viola; 8 g of ai/ha): 90%

CCCOc1nn(C(=O)NS(=O)(=O)c2ccccc2C(=O)OC)c(=O)n1C.[Na] [propoxycarbazone-sodium, methyl 2-[[[(4,5-dihydro-4-methyl-5-oxo-3-propoxy-1H-1,2,4-triazol-1-yl)carbonyl]-amino]-sulphonyl]-benzoate sodium salt]
Lactuca observed (Lactuca; 42 g of ai/ha): 10%
Stellaria observed (Stellaria; 42 g of ai/ha): 30%
Galium observed (Galium; 42 g of ai/ha): 0%
Legousia observed (Legousia; 42 g of ai/ha): 0%
Matricaria ch. observed 1st location (Matricaria ch.; 42 g of ai/ha): 60%
Matricaria ch. observed 2nd location (Matricaria ch.; 42 g of ai/ha): 10%
Matricaria in. observed (Matricaria in.; 42 g of ai/ha): 75%
Avenua observed (Avenua; 15 g of ai/ha, Table A-7): 50%
Avenua observed (Avenua; 15 g of ai/ha, Table A-8): 0%
Avenua observed (Avenua; 15 g of ai/ha, Table A-9): 0%
Avenua observed (Avenua; 30 g of ai/ha, Table A-7): 50%
Avenua observed (Avenua; 30 g of ai/ha, Table A-8): 20%
Avenua observed (Avenua; 30 g of ai/ha, Table A-9): 0%
Avenua observed (Avenua; 60 g of ai/ha, Table A-7): 60%
Avenua observed (Avenua; 60 g of ai/ha, Table A-9): 0%
